Experimental data from patent publication EP4501920A1, “NOVEL PYRAZOLE DERIVATIVES” (Aptabio Therapeutics Inc., priority 2022, dated 2023).

Tests used:
[1] = system: human foreskin fibroblasts (HFF-1, ATCC); experiment: Collagen gel contraction induced by TGF-β1; assay type: cell-based; details: HFF-1 cells and bovine type I collagen; TGF-β1 (10 ng/ml); 72 hours; FIG. 7
Excerpt: In order to confirm the effect of the compounds of Synthetic examples on differentiation of fibroblasts into myofibroblasts, the inhibitory effect of the compounds of Synthetic examples on the phenomenon of contraction of gel induced by interaction of human foreskin fibroblasts (HFF-1, ATCC) and collagen was observed.
The mixed solution of the HFF-1 cells and collagen (bovine type I collagen) prepared at a concentration of 3×10^6 cells/ml was aliquoted in a 24 well plate, respectively, and then cultured under the condition of 5% CO2, 37 °C for 1 hour to induce gel polymerization. Then, after suspending the gel attached on the plate from the plate using a spoon, a medium comprising TGF-β1 and Synthetic example compounds was added to each well. After culturing for 72 hours, the Synthetic example compounds were treated by 10, 20, 30, 40, 60 and 80 µM to measure the size of the gel, and thereby, the degree of contraction of the gel by drug treatment was confirmed.

IL-6 = experiment: Expression of IL-6 in pancreatic cancer associated fibroblasts (ELISA); assay type: cell-based, human; details: P.CAF cells; compounds 10, 20, 30, 40, 60 and 80 µM for 48 hours; FIG. 5
Description: (§1) In order to confirm the effect of the compounds of Synthetic examples of the present invention on inflammation reaction in cancer associated fibroblasts, whether the expression of IL6 and IL8 was inhibited by the compounds of Synthetic examples in pancreatic cancer associated fibroblasts (PCAF) was observed.
(§2) After inoculating 1.5×10^5 cells in a 6 well plate and then culturing in P.CAF complete media for 48 hours, the compounds of Synthetic examples were treated by 10, 20, 30, 40, 60 and 80 µM for 48 hours according to each condition, and then the expression of IL-6 and IL-8 was confirmed by performing ELISA with Quantkine ELISA kit (R&D systems) as follows.
(§3) 100 µl of the culture solution in which the compounds of Synthetic examples were treated for 48 hours was added to the microplate strip for analysis including a 100 µl assay diluent and left at a room temperature for 2 hours and then the contents were removed, and then it was washed with 400 µl wash buffer 4 times. 200 µl of a human IL-6 or IL-8 conjugate was added and left at a room temperature for 2 hours and then the contents were removed, and then it was washed with 400 µl wash buffer 4 times. 200 µl of substrate solution was added and left at a room temperature for 20 minutes and then 50 µl of stop solution was added, and the absorbance at a wavelength of 450nm was measured within 30 minutes to confirm the expression level of IL-6 and IL-8.

IL-8 = experiment: Expression of IL-8 in pancreatic cancer associated fibroblasts (ELISA); assay type: cell-based, human; details: P.CAF cells; compounds 10, 20, 30, 40, 60 and 80 µM for 48 hours; FIG. 6
Description: as §1, §2, §3

[2] = system: N27 (rat dopaminergic neural cell, Sigma) cells; experiment: ROS production induced by alpha-synuclein preformed fibril (PFF) in dopaminergic neural cells (CellROX-Deep Red); assay type: cell-based; details: 0.001 µM, 24 hours, FIG. 2
Description: In order to confirm the effect of the compounds of Synthetic examples on ROS production from dopaminergic neural cells, ROS production was induced by alpha-synuclein preformed fibril (PFF) stimulation on N27 (rat dopaminergic neural cell, Sigma) cells and under this condition, the inhibitory effect of ROS production of the compounds of Synthetic examples was observed.
The N27 cells were cultured in RPMI medium containing 10% FBS, 1 µM angiotensin II, and the prepared cells were aliquoted at a concentration of 4×10^3 cells/well on a 6-well plate. The ROS production stimulus, PFF (preformed fibril) and the compounds of Synthetic examples were treated to the cells. After treating the compounds of Synthetic examples for 24 hours, fluorescence of each well was measured using CellROX-Deep Red reagent, thereby confirming the degree of ROS production.

[3] = system: LX-2 (human hepatic stellate cells); experiment: ROS production induced by PMA in LX-2 cells; assay type: cell-based; details: FIG. 1
Excerpt: (§4) In order to confirm the effect of the compounds of Synthetic examples on ROS production from fibroblasts and specific substrate cells, ROS production was induced by stimulation of PMA (phorbol 12-myristate 13-acetate), TGF-β1, palmitate or high concentration-glucose, or the like, in HL-60 cells differentiated into neutrophil cells by DMSO treatment, NHLF (normal human lung fibroblast, Lonza), LX-2 (human hepatic stellate cells, Sigma), ARPE19 (human retinal pigment epithelial cell, ATCC), and KEL-FIB (Keloid fibroblast, ATCC) cells, and under this condition, the inhibitory effect of ROS production of the compounds of Synthetic examples was observed.
(§5) The NHLF (normal human lung fibroblast, Lonza), LX-2 (human hepatic stellate cells, Sigma), ARPE19 (human retinal pigment epithelial cell, ATCC), KEL-FIB (keloid fibroblast, ATCC) cells were suspended in a culture medium containing 10% FBS and aliquoted on a 96 well plate and then cultured under the condition of 5% CO2, 37°C for 24 hours. After pre-treating the compounds of Synthetic examples at a concentration of 10, 20, 30, 40, 60 and 80 µM for 30 minutes to 1 hour, the ROS stimulus was treated to each well containing the cells and drug. After additional culturing for 48 hours, the ROS production level was confirmed using L-012 or DCF-DA.

[4] = system: NHLF (normal human lung fibroblast); experiment: ROS production induced by PMA in NHLF cells; assay type: cell-based; details: FIG. 1
Excerpt: as §4, §5

[5] = system: alpha-synuclein preformed fibril (PFF) injection Parkinson's disease mouse model; experiment: Brain damage treatment effect in PFF injection Parkinson's disease mouse model; assay type: in vivo, C57Bl/6 mice; details: 25 mg/kg orally once a day for 7 weeks
Description: In order to test the effect for preventing or treating brain disease or disorder of the compounds of Synthetic examples, it was evaluated using an alpha-synuclein preformed fibril (PFF) injection Parkinson's disease mouse model.
C57Bl/6 mice were used, and all the mice were maintained under the standard condition. The experiment was conducted by dividing the experimental animals into a normal control group in which distilled water was orally administered (negative control), an alpha-synuclein preformed fibril (PFF) injection Parkinson's disease induction group (vehicle control), and an experimental group in which the compound of Synthetic example 16 of 25 mg/kg was orally administered into the alpha-synuclein preformed fibril (PFF) injection Parkinson's induction group daily (Synthetic example) with 8 animals in each group. For the normal control group, physiological saline solution was administered, and the Synthetic example compound was orally administered once a day for 7 weeks, and then a behavior change experiment and a histopathological experiment were performed.
The behavior change was analyzed by Rota rod, pole test and hindlimb clasping, and the average value of the 3 experiments per each animal was measured. […]

Structure (SMILES)	contraction of the gel induced by TGF-β1 [1]	IL-6 expressed in P.CAF (IL-6)	IL-8 expressed in P.CAF (IL-8)	ROS production induced by PFF [2]	also measured
O=C(C1CC1)N1CCN(C2CCc3nn(-c4ccccn4)c(O)c3C2)CC1 (stereo not drawn) [Compound 38, Cyclopropyl[4-(3-hydroxy-2-(pyridin-2-yl)-4,5,6,7-tetrahydro-2-indazol-5-yl)piperazin-1-yl]methanone]	effectively inhibited	effectively inhibited	effectively inhibited		
CN(Cc1ccc(S(C)(=O)=O)cc1)C1CCc2nn(-c3ccccn3)c(O)c2C1 (stereo not drawn) [Compound 12, 5-[(4-Methanesulfonylbenzyl)methylamino]-2-(pyridin-2-yl)-4,5,6,7-tetrahydro-2H-indazol-3-ol]	effectively inhibited			effectively inhibited	
COc1cccc(CN(C)C2CCc3nn(-c4ccccn4)c(O)c3C2)c1 (stereo not drawn) [Compound 13, 5-[(3-Methoxybenzyl)methylamino]-2-(pyridin-2-yl)-4,5,6,7-tetrahydro-2H-indazol-3-ol]	effectively inhibited				
CN1CCN(C2CCc3nn(-c4ccc(C(F)(F)F)cn4)c(O)c3C2)CC1 (stereo not drawn) [Compound 82, 5-(4-Methylpiperazin-1-yl)-2-(5-(trifluoromethyl)pyridin-2-yl)-4,5,6,7-tetrahydro-2H-indazol-3-ol]				effectively inhibited	
Oc1c2c(nn1-c1ccccn1)CCC(N1CCCCC1)C2 (stereo not drawn) [Compound 14, 5-Piperidin-1-yl-2-(pyridin-2-yl)-4,5,6,7-tetrahydro-2H-indazol-3-ol]	effectively inhibited				
CN(Cc1ccc(F)cc1F)C1CCc2nn(-c3ccccn3)c(O)c2C1 (stereo not drawn) [Compound 5, 5-[(2,4-Difluorobenzyl)methylamino]-2-(pyridin-2-yl)-4,5,6,7-tetrahydro-2H-indazol-3-ol]	effectively inhibited	effectively inhibited	effectively inhibited		
OCCOCCN1CCN(C2CCc3nn(-c4ccccn4)c(O)c3C2)CC1 (stereo not drawn) [Compound 17]					ROS production induced by PMA [3]: inhibited; ROS production induced by PMA [4]: inhibited
CN1CCN(C2CCc3nn(-c4ccccn4)c(O)c3C2)CC1 (stereo not drawn) [Compound 16, 5-(4-Methylpiperazin-1-yl)-2-(pyridin-2-yl)-4,5,6,7-tetrahydro-2H-indazol-3-ol]	effectively inhibited			effectively inhibited	Parkinson-like behavior symptoms improved ([5]; Rota rod, pole test, hindlimb clasping): ≥ 50%; aggregation and accumulation of a-synuclein improved ([5]; striatum histopathology): ≥ 50%
CN(Cc1cccc(S(C)(=O)=O)c1)C1CCc2nn(-c3ccccn3)c(O)c2C1 (stereo not drawn) [Compound 23, 5-[Methyl(3-methylsulfonylbenzyl)amino]-2-(pyridin-2-yl)-4,5,6,7-tetrahydro-2H-indazol-3-ol]	effectively inhibited	effectively inhibited	effectively inhibited		
CN(Cc1cc2ccccc2cn1)C1CCc2nn(-c3ccccn3)c(O)c2C1 (stereo not drawn) [Compound 62, 5-[(Isoquinolin-3-ylmethyl)methylamino]-2-(pyridin-2-yl)-4,5,6,7-tetrahydro-2H-indazol-3-ol]	effectively inhibited	effectively inhibited	effectively inhibited		
CN(Cc1ccc2ncccc2c1)C1CCc2nn(-c3ccccn3)c(O)c2C1 (stereo not drawn) [Compound 63, 5-[Methyl(quinolin-6-ylmethyl)amino]-2-(pyridin-2-yl)-4,5,6,7-tetrahydro-2H-indazol-3-ol]	effectively inhibited	effectively inhibited	effectively inhibited		
Oc1c2c(nn1-c1ccccn1)CCC(Nc1ccc(F)c(F)c1)C2 (stereo not drawn) [Compound 32, 5-(3,4-Difluorophenylamino)-2-(pyridin-2-yl)-4,5,6,7-tetrahydro-2H-indazol-3-ol]				effectively inhibited	
CN(C1CCc2nn(-c3ccccn3)c(O)c2C1)C1CCCc2cccnc21 (stereo not drawn) [Compound 33, 5-[Methyl(5,6,7,8-tetrahydroquinolin-8-yl)amino]-2-(pyridin-2-yl)-4,5,6,7-tetrahydro-2H-indazol-3-ol]	effectively inhibited	effectively inhibited	effectively inhibited		
